Laboratory results from patent US20240116985A1, “STAPLED PEPTIDES AND METHODS THEREOF” (priority 2020, published 2024).

Biological target: T1, full-length beta-Catenin (Uniprot ID P35222) (Homo sapiens, UniProt P35222)
T1 construct: 10 nM full-length beta-Catenin (Uniprot ID P35222)
T1 sequence (P35222 1-781): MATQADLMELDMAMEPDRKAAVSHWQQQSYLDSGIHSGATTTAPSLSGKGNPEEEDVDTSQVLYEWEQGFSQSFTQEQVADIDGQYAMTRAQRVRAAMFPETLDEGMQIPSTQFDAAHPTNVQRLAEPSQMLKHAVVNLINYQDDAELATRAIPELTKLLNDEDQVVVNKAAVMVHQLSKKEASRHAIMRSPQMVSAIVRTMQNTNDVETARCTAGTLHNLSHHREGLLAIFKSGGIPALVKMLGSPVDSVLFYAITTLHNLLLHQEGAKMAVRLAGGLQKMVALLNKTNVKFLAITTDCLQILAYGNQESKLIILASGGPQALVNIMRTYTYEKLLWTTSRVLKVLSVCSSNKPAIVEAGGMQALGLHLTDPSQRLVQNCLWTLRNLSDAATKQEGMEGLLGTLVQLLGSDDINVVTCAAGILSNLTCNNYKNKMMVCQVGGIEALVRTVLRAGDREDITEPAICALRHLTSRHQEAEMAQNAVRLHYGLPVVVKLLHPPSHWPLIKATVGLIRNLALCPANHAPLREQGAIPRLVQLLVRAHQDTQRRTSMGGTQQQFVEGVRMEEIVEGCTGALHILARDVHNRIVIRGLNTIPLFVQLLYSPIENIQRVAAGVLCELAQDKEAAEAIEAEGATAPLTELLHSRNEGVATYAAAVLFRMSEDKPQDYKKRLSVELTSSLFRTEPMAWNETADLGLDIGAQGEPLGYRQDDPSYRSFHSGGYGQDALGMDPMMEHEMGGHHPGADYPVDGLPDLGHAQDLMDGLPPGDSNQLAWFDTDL
Experiment: Fluorescence polarization IC50 (beta-catenin / 5FAM-TCF4 10-53 competition)
Format: binding
Conditions: fluorescence polarization; read-out: beta-Catenin FP IC50

Row | Compound | IC50 [nM]
1 | CC(=O)N1CCC[C@]12CC=CCCCC1(CCCC=CCCCOC(=O)N3CC[C@@](C(=O)N[C@@H](Cc4ccsc4)C(=O)N[C@@H](Cc4csc5ccccc45)C(=O)N[C@@H](Cc4c[nH]cn4)C(N)=O)(C3)NC(=O)[C@H](CC(N)=O)NC(=O)[C@H](Cc3ccccc3)NC(=O)[C@H](C)NC(=O)[C@H](C)NC(=O)[C@H]([C@@H](C)O)NC(=O)[C@H](CC(N)=O)NC1=O)NC(=O)[C@H](CC(C)(C)C)NC(=O)[C@H](CC(=O)O)NC2=O (stereo partly drawn) [I-2140, Ac-PL3-Asp-Npg-B5-Asn-Thr-Ala-Ala-Phe-Asn-PyrS2-3Thi-BztA-His-NH2] | 233
2 | CC(=O)N1CCC[C@]12CC=CCCCC1(CCCC=CCCCOC(=O)N3CC[C@@](C(=O)N[C@@H](Cc4ccsc4)C(=O)N[C@@H](Cc4csc5ccccc45)C(=O)N[C@@H](Cc4c[nH]cn4)C(N)=O)(C3)NC(=O)[C@H](CC(N)=O)NC(=O)[C@H](Cc3ccccc3)NC(=O)[C@H](C)NC(=O)[C@H](C)NC(=O)[C@H]([C@@H](C)O)NC(=O)[C@H](CC(N)=O)NC1=O)NC(=O)[C@H](CC(C)(C)C)NC(=O)[C@H](CC(=O)O)NC2=O (stereo partly drawn) [I-2141, Ac-PL3-Asp-Npg-B5-Asn-Thr-Ala-Ala-Phe-Asn-PyrS2-3Thi-BztA-His-NH2] | 310
3 | CC(=O)N1CCC[C@]12CC=CCCCC1(CCCC=CCCCOC(=O)N3CC[C@@](C(=O)N[C@@H](Cc4ccsc4)C(=O)N[C@@H](Cc4csc5ccccc45)C(=O)N[C@@H](Cc4ccccc4)C(N)=O)(C3)NC(=O)[C@H]([C@@H](C)O)NC(=O)[C@H](Cc3ccccc3)NC(=O)[C@H](C)NC(=O)[C@H](C)NC(=O)[C@H]([C@@H](C)O)NC(=O)[C@H](CC(N)=O)NC1=O)NC(=O)[C@H](CC(C)(C)C)NC(=O)[C@H](CC(=O)O)NC2=O (stereo partly drawn) [I-2144, Ac-PL3-Asp-Npg-B5-Asn-Thr-Ala-Ala-Phe-Thr-PyrS2-3Thi-BztA-Phe-NH2] | 2020
4 | CC(=O)N1CCC[C@]12CC=CCCCC1(CCCC=CCCCOC(=O)N3CC[C@@](C(=O)N[C@@H](Cc4ccsc4)C(=O)N[C@@H](Cc4csc5ccccc45)C(=O)N[C@@H](CCC(N)=O)C(N)=O)(C3)NC(=O)[C@H](Cc3c[nH]cn3)NC(=O)[C@H](Cc3ccccc3)NC(=O)[C@H](C)NC(=O)[C@H](C)NC(=O)[C@H]([C@@H](C)O)NC(=O)[C@H](CC(N)=O)NC1=O)NC(=O)[C@H](CC(C)(C)C)NC(=O)[C@H](CC(=O)O)NC2=O (stereo partly drawn) [I-2146, Ac-PL3-Asp-Npg-B5-Asn-Thr-Ala-Ala-Phe-His-PyrS2-3Thi-BztA-Gln-NH2] | 248
5 | CC(=O)N1CCC[C@]12CC=CCCCC1(CCCC=CCCCOC(=O)N3CC[C@@](C(=O)N[C@@H](Cc4cccc(Br)c4)C(=O)N[C@@H](Cc4ccccc4)C(=O)N[C@@H](CCC(N)=O)C(N)=O)(C3)NC(=O)[C@H](CC(C)C)NC(=O)[C@H](Cc3ccccc3)NC(=O)[C@H](C)NC(=O)[C@H](C)NC(=O)[C@H](Cc3cccc(C(=O)O)c3)NC(=O)[C@H](CC(=O)O)NC1=O)NC(=O)[C@H](CC(C)(C)C)NC(=O)[C@H](CC(=O)O)NC2=O (stereo partly drawn) [I-2153, Ac-PL3-Asp-Npg-B5-Asp-3COOHF-Ala-Ala-Phe-Leu-PyrS2-3BrF-Phe-Gln-NH2] | 1480
6 | CC(=O)N1CCC[C@]12CC=CCCCC1(CCCC=CCCCOC(=O)N3CC[C@@](C(=O)N[C@@H](Cc4cccc(Br)c4)C(=O)N[C@@H](CC4CCC4)C(=O)N[C@@H](CCC(N)=O)C(N)=O)(C3)NC(=O)[C@H](CC(C)C)NC(=O)[C@H](Cc3ccccc3)NC(=O)[C@H](C)NC(=O)[C@H](C)NC(=O)[C@H](Cc3cccc(C(=O)O)c3)NC(=O)[C@H](CC(=O)O)NC1=O)NC(=O)[C@H](CC(C)(C)C)NC(=O)[C@H](CC(=O)O)NC2=O (stereo partly drawn) [I-2154, Ac-PL3-Asp-Npg-B5-Asp-3COOHF-Ala-Ala-Phe-Leu-PyrS2-3BrF-Cba-Gln-NH2] | 9550
7 | CC(=O)N1CCC[C@]12CC=CCC1(CC=CCCCCOC(=O)N3CC[C@@](C(=O)N[C@@H](Cc4ccsc4)C(=O)N[C@@H](Cc4csc5ccccc45)C(=O)N[C@@H](CCC(N)=O)C(N)=O)(C3)NC(=O)[C@H](CC(C)C)NC(=O)[C@H](Cc3ccccc3)NC(=O)[C@H](C)NC(=O)[C@H](C)NC(=O)[C@H](CC(=O)O)NC(=O)[C@H](CC(=O)O)NC1=O)NC(=O)[C@H](CC(C)(C)C)NC(=O)[C@H](CC(=O)O)NC2=O (stereo partly drawn) [I-2157, Ac-PL3-Asp-Npg-B3-Asp-Asp-Ala-Ala-Phe-Leu-PyrS3-3Thi-BztA-Gln-NH2] | 141
8 | CC(=O)N1CCC[C@]12CC=CCCCC1(CCCC=CCCCOC(=O)N3CC[C@@](C(=O)N[C@@H](Cc4cccc(C(N)=O)c4)C(=O)N[C@@H](Cc4csc5ccccc45)C(=O)N[C@@H](CCC(N)=O)C(N)=O)(C3)NC(=O)[C@H](CC(C)C)NC(=O)[C@H](Cc3ccccc3)NC(=O)[C@H](C)NC(=O)[C@H](CCCCNC(C)C)NC(=O)[C@H](CCC(N)=O)NC(=O)[C@H](CC(=O)O)NC1=O)NC(=O)[C@H](CC1CCCCC1)NC(=O)[C@H](CC(N)=O)NC2=O (stereo partly drawn) [I-2163, Ac-PL3-Asn-Cha-B5-Asp-Gln-iPrLys-Ala-Phe-Leu-PyrS2-3cbmf-BztA-Gln-NH2] | 3720

Continued, values first:

Row | IC50 [nM] | Compound
9 | 217 | CC(=O)N1CCC[C@]12CC=CCCCC1(CCCC=CCCCOC(=O)N3CC[C@@](C(=O)N[C@@H](Cc4ccsc4)C(=O)N[C@@H](Cc4csc5ccccc45)C(=O)N[C@@H](C)C(N)=O)(C3)NC(=O)[C@H](CC(N)=O)NC(=O)[C@H](Cc3ccccc3)NC(=O)[C@H](C)NC(=O)[C@H](C)NC(=O)[C@H]([C@@H](C)O)NC(=O)[C@H](CC(N)=O)NC1=O)NC(=O)[C@H](CC(C)(C)C)NC(=O)[C@H](CC(=O)O)NC2=O (stereo partly drawn) [I-2143, Ac-PL3-Asp-Npg-B5-Asn-Thr-Ala-Ala-Phe-Asn-PyrS2-3Thi-BztA-Ala-NH2]
10 | 2070 | CC(=O)N1CCC[C@]12CC=CCCCC1(CCCC=CCCCOC(=O)N3CC[C@@](C(=O)N[C@@H](Cc4ccsc4)C(=O)N[C@@H](Cc4csc5ccccc45)C(=O)N[C@@H](Cc4ccccc4)C(N)=O)(C3)NC(=O)[C@H]([C@@H](C)O)NC(=O)[C@H](Cc3ccccc3)NC(=O)[C@H](C)NC(=O)[C@H](C)NC(=O)[C@H]([C@@H](C)O)NC(=O)[C@H](CC(N)=O)NC1=O)NC(=O)[C@H](CC(C)(C)C)NC(=O)[C@H](CC(=O)O)NC2=O (stereo partly drawn) [I-2145, Ac-PL3-Asp-Npg-B5-Asn-Thr-Ala-Ala-Phe-Thr-PyrS2-3Thi-BztA-Phe-NH2]
11 | 390 | CC(=O)N1CCC[C@]12CC=CCCCC1(CCCC=CCCCOC(=O)N3CC[C@@](C(=O)N[C@@H](Cc4ccsc4)C(=O)N[C@@H](Cc4csc5ccccc45)C(=O)N[C@@H](CCC(N)=O)C(N)=O)(C3)NC(=O)[C@H](Cc3c[nH]cn3)NC(=O)[C@H](Cc3ccccc3)NC(=O)[C@H](C)NC(=O)[C@H](C)NC(=O)[C@H]([C@@H](C)O)NC(=O)[C@H](CC(N)=O)NC1=O)NC(=O)[C@H](CC(C)(C)C)NC(=O)[C@H](CC(=O)O)NC2=O (stereo partly drawn) [I-2147, Ac-PL3-Asp-Npg-B5-Asn-Thr-Ala-Ala-Phe-His-PyrS2-3Thi-BztA-Gln-NH2]
12 | 7180 | CC(=O)N1CCC[C@]12CC=CCCCC1(CCCC=CCCCOC(=O)N3CC[C@@](C(=O)N[C@@H](Cc4ccsc4)C(=O)N[C@@H](Cc4csc5ccccc45)C(=O)N[C@@H](CCC(N)=O)C(N)=O)(C3)NC(=O)[C@H](CC(N)=O)NC(=O)[C@H](Cc3ccccc3)NC(=O)[C@H](C)NC(=O)[C@H](C)NC(=O)[C@H]([C@@H](C)O)NC(=O)[C@H]([C@@H](C)O)NC1=O)NC(=O)[C@H](CC(C)(C)C)NC(=O)[C@H](CC(=O)O)NC2=O (stereo partly drawn) [I-2149, Ac-PL3-Asp-Npg-B5-Thr-Thr-Ala-Ala-Phe-Asn-PyrS2-3Thi-BztA-Gln-NH2]
13 | 3080 | CC(=O)N1CCC[C@]12CC=CCCCC1(CCCC=CCCCOC(=O)N3CC[C@@](C(=O)N[C@@H](Cc4cccc(Br)c4)C(=O)N[C@@H](Cc4ccsc4)C(=O)N[C@@H](CCC(N)=O)C(N)=O)(C3)NC(=O)[C@H](CC(C)C)NC(=O)[C@H](Cc3ccccc3)NC(=O)[C@H](C)NC(=O)[C@H](C)NC(=O)[C@H](Cc3cccc(C(=O)O)c3)NC(=O)[C@H](CC(=O)O)NC1=O)NC(=O)[C@H](CC(C)(C)C)NC(=O)[C@H](CC(=O)O)NC2=O (stereo partly drawn) [I-2152, Ac-PL3-Asp-Npg-B5-Asp-3COOHF-Ala-Ala-Phe-Leu-PyrS2-3BrF-3Thi-Gln-NH2]
14 | 1240 | CC(=O)N1CCC[C@]12CCCCC1(CCCCCCOC(=O)N3CC[C@@](C(=O)N[C@@H](Cc4ccsc4)C(=O)N[C@@H](Cc4csc5ccccc45)C(=O)N[C@@H](CCC(N)=O)C(N)=O)(C3)NC(=O)[C@H](CC(C)C)NC(=O)[C@H](Cc3ccccc3)NC(=O)[C@H](C)NC(=O)[C@H](C)NC(=O)[C@H](CC(=O)O)NC(=O)[C@H](CC(=O)O)NC1=O)NC(=O)[C@H](CC(C)(C)C)NC(=O)[C@H](CC(=O)O)NC2=O (stereo partly drawn) [I-2160, Ac-PL3-Asp-Npg-B3-Asp-Asp-Ala-Ala-Phe-Leu-PyrS2-3Thi-BztA-Gln-NH2]
15 | 1180 | CC(=O)N1CCC[C@]12CC=CCCCC1(CCCC=CCCCOC(=O)N3CC[C@@](C(=O)N[C@@H](Cc4cccc(C(N)=O)c4)C(=O)N[C@@H](Cc4csc5ccccc45)C(=O)N[C@@H](CCC(N)=O)C(N)=O)(C3)NC(=O)[C@H](CC(N)=O)NC(=O)[C@H](Cc3ccccc3)NC(=O)[C@H](C)NC(=O)[C@H](CCCCNC(C)C)NC(=O)[C@H](CCC(N)=O)NC(=O)[C@H](CC(=O)O)NC1=O)NC(=O)[C@H](CC1CCCCC1)NC(=O)[C@H](CC(N)=O)NC2=O (stereo partly drawn) [I-2164, Ac-PL3-Asn-Cha-B5-Asp-Gln-iPrLys-Ala-Phe-Asn-PyrS2-3cbmf-BztA-Gln-NH2]
